Assay results reported in patent US7794957B2, “Eukaryotic genes involved in adult lifespan regulation” (priority 2001, dated 2010).
Entries after “also recorded” stand apart in the source; their conditions may differ.

Test system: C. elegans
Assay: Antimycin A treatment, adult lifespan analysis
Format: in vivo
Description: During a systematic screen of a C. elegans Chromosome I RNAi library it was discovered that animals grown on bacteria expressing atp-3 double-stranded RNA lived much longer than normal (Fraser et al., Nature 408:325 (2000)). Lifespan analysis was conducted at 25° C. as described previously (Kenyon et al., Nature 366:461 (1993)). The pre-fertile period of adulthood was used as t=0 for lifespan analysis. Strains were grown at 20° C. for at least two generations before use in lifespan analysis. Statview 5.0.1 (SAS) software was used for statistical analysis and to determine means and percentiles. In all cases, p values were calculated using the logrank (Mantel-Cox) method.
OP-50 bacteria were spread onto NG plates and allowed to grow for two days at room temperature. 50 μl of 0.01 M Antimycin A (Sigma) dissolved in 100% ethanol was dropped onto bacterial lawn and allowed to dry overnight in a fume hood at room temperature. […] Animals were transferred to new Antimycin A plates every 4 days. Control worms (ethanol only) were handled in the same manner) (Table 1).

[1] = fer-15(b26), fem-1(hc17) + 0.1 μM Antimycin A, 25° C.

## Antimycin A
C. elegans, from hatching through adulthood or regimen not stated, listed as antimycin
  effect on lifespan (words): substantially increased lifespan; also recorded: increases lifespan
C. elegans, from hatching through adulthood or regimen not stated, listed as antimycin A
  effect on lifespan (words): increased lifespan
Administration to adult worms
  effect on lifespan (words): increased lifespan
Animals grown in the presence of 0.1 micromolar antimycin in ethanol
  mean lifespan: 21 days
[1]
  75th percentile adult lifespan: 25 days
  Mean ± s.e.m. adult lifespan: 20.4 ± 0.7 days
